# Laboratory results taken from ChEMBL document CHEMBL4316628, “Bioactivity-guided identification of flavonoids with cholinesterase and β-amyloid peptide aggregation inhibitory effects from the seeds of Millettia pachycarpa” (Bioorg Med Chem Lett, 2019).
# pIC50, pKi: −log10 of the molar value. Activity calls are given as the source filed them. The calls are words filed in the database; no cut-off is given here.
# Columns and labels:
# Cholinesterase [1] = target: T1, Cholinesterase (Homo sapiens, UniProt P06276); settings: 100 ug/mL
# T1 sequence (P06276 whole entry): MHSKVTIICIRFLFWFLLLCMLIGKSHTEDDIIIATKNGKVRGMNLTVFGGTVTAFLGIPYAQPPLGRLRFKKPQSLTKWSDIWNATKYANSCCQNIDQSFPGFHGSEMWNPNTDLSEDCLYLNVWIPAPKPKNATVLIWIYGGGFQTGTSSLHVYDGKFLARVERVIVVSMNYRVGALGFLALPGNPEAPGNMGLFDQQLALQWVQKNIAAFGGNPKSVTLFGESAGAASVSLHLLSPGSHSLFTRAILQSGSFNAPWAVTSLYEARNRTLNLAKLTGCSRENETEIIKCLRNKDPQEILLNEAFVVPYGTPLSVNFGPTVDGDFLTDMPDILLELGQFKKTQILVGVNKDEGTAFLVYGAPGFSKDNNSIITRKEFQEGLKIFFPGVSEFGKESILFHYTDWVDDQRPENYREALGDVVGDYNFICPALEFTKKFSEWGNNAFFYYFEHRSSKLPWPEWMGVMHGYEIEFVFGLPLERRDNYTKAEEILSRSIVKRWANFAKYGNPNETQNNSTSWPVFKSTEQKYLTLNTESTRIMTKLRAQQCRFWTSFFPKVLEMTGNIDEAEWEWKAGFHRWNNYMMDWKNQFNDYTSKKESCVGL
# Description: Inhibition of BChE (unknown origin) at 100 ug/mL using butyrylthiocholine iodide as substrate by spectrophotometry based Ellman's method
# Cholinesterase [2] = target: T1, Cholinesterase; assay: Inhibition of BChE (unknown origin) at 20 ug/mL using butyrylthiocholine iodide as substrate by spectrophotometry based Ellman's method
# Cholinesterase [3] = target: T1, Cholinesterase; assay: Inhibition of BChE (unknown origin) using butyrylthiocholine iodide as substrate by spectrophotometry based Ellman's method; settings: for pIC50: read-out: IC50
# [4] = target: Amyloid-beta precursor protein (Homo sapiens) (UniProt P05067); assay: Inhibition of amyloid beta (1 to 42) (unknown origin) self-aggregation at 20 uM incubated for 48 hrs by thioflavin-T fluorescence method
# Amyloid-beta precursor protein (Homo sapiens), sequence (P05067 whole entry): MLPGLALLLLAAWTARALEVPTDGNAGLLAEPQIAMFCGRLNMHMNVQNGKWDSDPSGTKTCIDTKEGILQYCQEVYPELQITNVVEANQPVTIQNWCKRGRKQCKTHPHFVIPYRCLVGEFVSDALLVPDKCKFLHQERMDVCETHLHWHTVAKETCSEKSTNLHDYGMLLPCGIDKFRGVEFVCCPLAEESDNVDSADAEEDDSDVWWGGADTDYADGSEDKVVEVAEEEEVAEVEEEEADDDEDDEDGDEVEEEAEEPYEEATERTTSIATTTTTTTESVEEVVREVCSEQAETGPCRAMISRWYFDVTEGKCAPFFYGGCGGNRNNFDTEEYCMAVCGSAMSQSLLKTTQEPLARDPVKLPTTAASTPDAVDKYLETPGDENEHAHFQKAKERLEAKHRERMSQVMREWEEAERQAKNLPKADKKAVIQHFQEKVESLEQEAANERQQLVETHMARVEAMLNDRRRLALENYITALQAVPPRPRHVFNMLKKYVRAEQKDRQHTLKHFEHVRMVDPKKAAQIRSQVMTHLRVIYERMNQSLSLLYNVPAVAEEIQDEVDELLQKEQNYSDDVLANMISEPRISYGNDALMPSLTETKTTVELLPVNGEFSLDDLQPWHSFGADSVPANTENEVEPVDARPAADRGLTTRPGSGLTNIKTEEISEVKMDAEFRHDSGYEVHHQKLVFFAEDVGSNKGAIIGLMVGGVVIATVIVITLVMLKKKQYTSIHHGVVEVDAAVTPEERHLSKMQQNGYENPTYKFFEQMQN
# Acetylcholinesterase [5] = target: T2, Acetylcholinesterase (Homo sapiens, UniProt P22303); assay: Inhibition of AChE (unknown origin) using acetylthiocholine iodide as substrate by spectrophotometry based Ellman's method; settings: for pIC50: read-out: IC50
# T2 sequence (P22303 whole entry): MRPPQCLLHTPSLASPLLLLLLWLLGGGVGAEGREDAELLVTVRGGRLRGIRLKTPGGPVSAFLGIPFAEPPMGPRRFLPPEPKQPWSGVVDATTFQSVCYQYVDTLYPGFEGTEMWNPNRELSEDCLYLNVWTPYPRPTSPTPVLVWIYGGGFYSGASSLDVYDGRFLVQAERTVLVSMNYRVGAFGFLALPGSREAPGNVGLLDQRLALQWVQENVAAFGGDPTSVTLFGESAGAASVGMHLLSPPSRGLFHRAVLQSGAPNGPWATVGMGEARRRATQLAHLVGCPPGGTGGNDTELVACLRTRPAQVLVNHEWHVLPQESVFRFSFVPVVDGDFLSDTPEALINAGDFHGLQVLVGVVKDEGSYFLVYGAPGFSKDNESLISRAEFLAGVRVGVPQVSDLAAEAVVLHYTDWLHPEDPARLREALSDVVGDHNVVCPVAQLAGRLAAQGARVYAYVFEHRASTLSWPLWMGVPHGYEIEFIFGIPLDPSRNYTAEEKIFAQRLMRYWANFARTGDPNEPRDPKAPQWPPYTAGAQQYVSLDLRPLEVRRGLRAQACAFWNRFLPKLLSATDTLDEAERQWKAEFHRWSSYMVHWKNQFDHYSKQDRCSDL
# [6] = target: Amyloid-beta precursor protein (Homo sapiens) (UniProt P05067); assay: Inhibition of amyloid beta (1 to 42) (unknown origin) self-aggregation at 80 uM incubated for 48 hrs by thioflavin-T fluorescence method
# [7] = target: Amyloid-beta precursor protein (Homo sapiens) (UniProt P05067); assay: Inhibition of amyloid beta (1 to 42) (unknown origin) self-aggregation at 40 uM incubated for 48 hrs by thioflavin-T fluorescence method
# [8] = target: Amyloid-beta precursor protein (Homo sapiens) (UniProt P05067); assay: Inhibition of amyloid beta (1 to 42) (unknown origin) self-aggregation incubated for 48 hrs by thioflavin-T fluorescence method
# Cholinesterase [9] = target: T1, Cholinesterase; assay: Binding affinity to BChE (unknown origin) assessed as reduction in intrinsic protein fluorescence at 25 degC by fluorescence spectrophotometry
# Beta-secretase 1 = Beta-secretase 1 (Homo sapiens, UniProt P56817); assay: Inhibition of BACE1 (unknown origin) expressed in baculovirus-expression system using Rh-EVNLDAEFK-Quencher substrate by FRET assay
# Beta-secretase 1, sequence (P56817 whole entry): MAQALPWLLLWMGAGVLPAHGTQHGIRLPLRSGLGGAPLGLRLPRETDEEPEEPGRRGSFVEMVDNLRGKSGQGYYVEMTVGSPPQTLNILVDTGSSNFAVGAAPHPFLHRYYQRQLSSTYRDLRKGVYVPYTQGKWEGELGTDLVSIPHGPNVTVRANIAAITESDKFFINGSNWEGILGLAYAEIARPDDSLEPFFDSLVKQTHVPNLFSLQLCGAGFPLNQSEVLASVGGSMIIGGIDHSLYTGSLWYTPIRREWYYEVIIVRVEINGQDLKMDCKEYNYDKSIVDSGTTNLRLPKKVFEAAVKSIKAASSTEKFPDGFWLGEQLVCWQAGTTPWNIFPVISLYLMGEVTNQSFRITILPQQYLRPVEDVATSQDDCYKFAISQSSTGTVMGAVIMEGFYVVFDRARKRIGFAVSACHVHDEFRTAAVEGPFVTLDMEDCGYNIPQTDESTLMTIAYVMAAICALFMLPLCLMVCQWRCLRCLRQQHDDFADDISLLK
# Acetylcholinesterase [10] = target: T2, Acetylcholinesterase; assay: Binding affinity to AChE (unknown origin) assessed as reduction in intrinsic protein fluorescence at 25 degC by fluorescence spectrophotometry
# Cholinesterase [11] = target: T1, Cholinesterase; assay: Mixed type inhibition of BChE (unknown origin) using butyrylthiocholine iodide as substrate by Ellman's method based Lineweaver-Burk plot analysis
# Acetylcholinesterase [12] = target: T2, Acetylcholinesterase; assay: Competitive type inhibition of AChE (unknown origin) using acetylthiocholine iodide as substrate by Ellman's method based Lineweaver-Burk plot analysis
Compound,inhibition (Cholinesterase [2]),pIC50 (Cholinesterase [3]),inhibition [4],pIC50 (Acetylcholinesterase [5]),inhibition [6],inhibition [7],IC50 (Cholinesterase [3]),other results
COc1ccc2c3c1O[C@H]1C[C@@H](O)C=C[C@@]31CCN(C)C2,94.6%,–,–,–,–,–,–,inhibition (Cholinesterase [1]): 94.6%
COc1cc(OC)c(-c2coc3c4c(ccc3c2=O)OC(C)(C)C=C4)cc1OC,68.5%,4.66,inactive,3.92,inactive,inactive,–,–
CC1(C)C=Cc2c(ccc(C(=O)/C=C/c3ccc(O)cc3)c2O)O1,86.5%,5.25,53.7%,4.77,73.3%,65.7%,–,inhibition [8]: Dose-dependent effect; Activity (Cholinesterase [9]): Dose-dependent effect; pIC50 (Cholinesterase [9]): 5.59; pIC50 (Beta-secretase 1): 5.01; Activity (Acetylcholinesterase [10]): Dose-dependent effect; pIC50 (Acetylcholinesterase [10]): 4.53; pKi (Cholinesterase [11]): 5.46; pKi (Acetylcholinesterase [12]): 5.13
COc1cc2c(cc1OC)[C@@H]1C(=O)c3ccc4c(c3O[C@@H]1CO2)C=CC(C)(C)O4 [DEGUELIN],14.2%,–,–,3.90,–,–,Not Active,–
CC1(C)C=Cc2c(ccc3c2OC(c2ccc(O)cc2)CC3=O)O1 (centres undefined),91.9%,4.94,50.9%,–,73.5%,63.5%,–,pIC50 (Cholinesterase [9]): 5.45; IC50 (Acetylcholinesterase [5]): Not Active; pKi (Cholinesterase [11]): 5.43
COc1cc2c(cc1OC)[C@]1(O)C(=O)c3ccc4c(c3O[C@@H]1CO2)C=CC(C)(C)O4 [TEPHROSIN],16.2%,–,–,3.90,–,–,Not Active,–
COc1cc(/C=C/C(=O)CC(=O)/C=C/c2ccc(O)c(OC)c2)ccc1O,–,–,Active,–,Active,Active,–,–
COc1ccc(C2CC(=O)c3ccc4c(c3O2)C=CC(C)(C)O4)cc1 (centres undefined),24.7%,3.65,–,4.04,–,–,–,–
C=C(C)[C@H]1Cc2c(ccc3c2O[C@@H]2COc4cc(OC)c(OC)cc4[C@]2(O)C3=O)O1 [ROTENOLONE],9.87%,–,–,–,–,–,Not Active,IC50 (Acetylcholinesterase [5]): Not Active
COc1ccc(/C=C/C(=O)c2ccc3c(c2O)C=CC(C)(C)O3)cc1,37%,3.99,–,4.13,–,–,–,–
COC1=CC(=O)C(OC)(OC)C=C1[C@@]1(O)C(=O)c2ccc3c(c2O[C@@H]1CO)C=CC(C)(C)O3,17.1%,–,–,–,–,–,Not Active,IC50 (Acetylcholinesterase [5]): Not Active
COc1ccc(-c2coc3c4c(ccc3c2=O)OC(C)(C)C=C4)cc1OC,98.2%,5.63,inactive,3.88,inactive,inactive,–,pIC50 (Cholinesterase [9]): 5.11; pKi (Cholinesterase [11]): 6.04
